Laboratory results taken from PubChem BioAssay AID330 (DTP/NCI, 2004).
Several values for one entry are separate records, joined by “and”; a condition that tells them apart may be missing. Identical values can stand only once. Inconclusive results and toxic doses are left out.

Test system: P388 leukemia ip, CD2F1 mice, survival T/C
Assay: NCI In Vivo Anticancer Drug Screen. Data for tumor model P388 Leukemia (intraperitoneal) in CD2F1 (CDF1) mice
Details: endpoint: median survival time, higher = longer survival
Summary of the method: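 Mice carrying the transplanted tumor received test compound or vehicle. Survival was recorded in each group, and the value is the treated-group measurement divided by that of the vehicle-treated control group.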

[1] = dose: 50.0 mg/kg/injection, schedule: Q01DX009 (ip), vehicle: saline with Tween-80
[2] = dose: 100.0 mg/kg/injection, schedule: Q01DX009 (ip), vehicle: saline with Tween-80
[3] = dose: 200.0 mg/kg/injection, schedule: Q01DX009 (ip), vehicle: saline with Tween-80
[4] = dose: 12.5 mg/kg/injection, schedule: Q01DX009 (ip), vehicle: other
[5] = dose: 50.0 mg/kg/injection, schedule: Q01DX005 (ip), vehicle: saline with Tween-80
[6] = dose: 100.0 mg/kg/injection, schedule: Q01DX005 (ip), vehicle: saline with Tween-80
[7] = dose: 200.0 mg/kg/injection, schedule: Q01DX005 (ip), vehicle: saline with Tween-80
[8] = dose: 50.0 mg/kg/injection, schedule: Q01DX009 (ip), vehicle: saline
[9] = dose: 100.0 mg/kg/injection, schedule: Q01DX009 (ip), vehicle: saline
[10] = dose: 200.0 mg/kg/injection, schedule: Q01DX009 (ip), vehicle: saline
[11] = dose: 60.0 mg/kg/injection, schedule: Q01DX005 (ip), vehicle: saline with Tween-80
[12] = dose: 120.0 mg/kg/injection, schedule: Q01DX005 (ip), vehicle: saline with Tween-80
[13] = dose: 240.0 mg/kg/injection, schedule: Q01DX005 (ip), vehicle: saline with Tween-80
[14] = dose: 100.0 mg/kg/injection, schedule: Q01DX001 (ip), vehicle: saline with Tween-80
[15] = dose: 200.0 mg/kg/injection, schedule: Q01DX001 (ip), vehicle: saline with Tween-80
[16] = dose: 400.0 mg/kg/injection, schedule: Q01DX001 (ip), vehicle: saline with Tween-80
[17] = dose: 100.0 mg/kg/injection, schedule: Q01DX009 (ip), vehicle: Klucel (hydroxypropylcellulose) (HPC)
[18] = dose: 200.0 mg/kg/injection, schedule: Q01DX009 (ip), vehicle: Klucel (hydroxypropylcellulose) (HPC)
[19] = dose: 400.0 mg/kg/injection, schedule: Q01DX009 (ip), vehicle: Klucel (hydroxypropylcellulose) (HPC)
[20] = dose: 12.5 mg/kg/injection, schedule: Q01DX009 (ip), vehicle: saline with Tween-80

In the case of `O=NN(CCCl)C(=O)Nc1cccc(O)c1`, the T/C (dose: 66.0 mg/kg/injection, schedule: Q04DX003 (ip), vehicle: Klucel (hydroxypropylcellulose) (HPC)) is reported as 220 % of control and the T/C (dose: 100.0 mg/kg/injection, schedule: Q04DX003 (ip), vehicle: Klucel (hydroxypropylcellulose) (HPC)) is reported as 240 % of control.
With `Nc1ncnc2ccc(Cl)cc12` the T/C [1] was 105 % of control, the T/C [2] was 100 % of control and the T/C [3] was 107 % of control.
In the case of `CCNC(=O)N(Cc1ccccc1)Cc1ccccc1`, the T/C [4] is reported as 114 % of control, the T/C (dose: 25.0 mg/kg/injection, schedule: Q01DX009 (ip), vehicle: other) is reported as 112 % of control and the T/C (dose: 50.0 mg/kg/injection, schedule: Q01DX009 (ip), vehicle: other) is reported as 104 % of control. The T/C (dose: 100.0 mg/kg/injection, schedule: Q01DX009 (ip), vehicle: other) was 118 % of control.
For `CC(=O)Nc1nnc(-c2cc(=O)c3cc(Cl)ccc3o2)s1`, the T/C [5] was 101 % of control, the T/C [6] was 92 % of control and the T/C [7] was 97 % of control.
With `CC1=NCc2nn(C)nc2N1` the T/C [8] was 100 % of control, the T/C [9] was 100 % of control and the T/C [10] was 97 % of control.
In the case of `O=C(O)c1cscn1`, the T/C (dose: 60.0 mg/kg/injection, schedule: Q01DX005 (ip), vehicle: saline) is reported as 100 % of control, the T/C (dose: 120.0 mg/kg/injection, schedule: Q01DX005 (ip), vehicle: saline) is reported as 97 % of control and the T/C (dose: 240.0 mg/kg/injection, schedule: Q01DX005 (ip), vehicle: saline) is reported as 113 % of control.
With `N#CC(=NCCO)C1=C(O)c2ccccc2C1=O` the T/C [11] was 107 % of control, the T/C [12] was 97 % of control and the T/C [13] was 95 % of control.
`Cc1cc(C2(c3cc(C)c(O)c(CN(CC(=O)O)CC(=O)O)c3)OS(=O)(=O)c3ccccc32)cc(CN(CC(=O)O)CC(=O)O)c1O` was tested, and the T/C [8] was 105 % of control, the T/C [9] was 96 % of control and the T/C [10] was 104 % of control.
In the case of `CC(=O)OCC1OC(Sc2ccc([N+](=O)[O-])cc2)C(OC(C)=O)C(OC(C)=O)C1OC(C)=O` (stereo unspecified), the T/C (dose: 15.0 mg/kg/injection, schedule: Q01DX005 (ip), vehicle: saline with Tween-80) is reported as 100 % of control, the T/C (dose: 30.0 mg/kg/injection, schedule: Q01DX005 (ip), vehicle: saline with Tween-80) is reported as 98 % of control and the T/C [11] is reported as 91 % of control.
`CS(C)(=O)=Nc1ccc(F)cc1` was tested, and the T/C [14] was 99 % of control, the T/C [15] was 99 % of control and the T/C [16] was 99 % of control.
`N#CC1(C#N)CC1c1ccccc1` (stereo unspecified) was tested, and the T/C [11] was 105 % of control, the T/C [12] was 96 % of control and the T/C [13] was 96 % of control.
`CN(C)C(=O)Nc1cccc2c(NC(=O)N(C)C)cccc12` was tested, and the T/C (dose: 50.0 mg/kg/injection, schedule: Q01DX009 (ip), vehicle: Klucel (hydroxypropylcellulose) (HPC)) was 100 % of control and 103 % of control, the T/C [17] was 100 % of control (2×) and 93 % of control and the T/C [18] was 99 % of control and 87 % of control. For the same molecule, the T/C [19] was 91 % of control.
In the case of `CC(C)NC(=O)OCC#CCOC(=O)NC(C)C`, the T/C [5] is reported as 98 % of control, the T/C [6] is reported as 90 % of control and the T/C [7] is reported as 90 % of control.
With `NC(=S)N/N=C/c1ccc(OC(F)(F)F)cn1` the T/C (dose: 1.56 mg/kg/injection, schedule: Q01DX009 (ip), vehicle: saline with Tween-80) was 101 % of control, the T/C (dose: 3.13 mg/kg/injection, schedule: Q01DX009 (ip), vehicle: saline with Tween-80) was 101 % of control and 107 % of control and the T/C (dose: 6.25 mg/kg/injection, schedule: Q01DX009 (ip), vehicle: saline with Tween-80) was 100 % of control and 95 % of control. The T/C [20] was 99 % of control and 101 % of control, the T/C (dose: 25.0 mg/kg/injection, schedule: Q01DX009 (ip), vehicle: saline with Tween-80) was 101 % of control and the T/C [1] was 114 % of control.
With `C[C@@H]1CCC[C@H]1CC(N)C(=O)O` (stereo partly specified) the T/C [5] was 99 % of control, the T/C [6] was 95 % of control and the T/C [7] was 91 % of control.
With `NC(=S)N/N=C\c1[nH]c(=O)nc2ccccc12` the T/C [17] was 100 % of control, the T/C [18] was 100 % of control and the T/C [19] was 100 % of control.
In the case of `CC(=O)c1c[nH]cc1CO`, the T/C [1] is reported as 107 % of control, the T/C [2] is reported as 100 % of control and the T/C [3] is reported as 98 % of control.
With `N#C/C(N)=C(\C#N)N=Cc1ccc(-c2ccccc2)cc1` the T/C [14] was 90 % of control, the T/C [15] was 90 % of control and the T/C [16] was 86 % of control.
With `O=[N+]([O-])c1cn[n+]([O-])c2ccccc12` the T/C [20] was 119 % of control and the T/C [1] was 86 % of control.
For `CCOC1CC(C)(C)c2c(-c3ccccc3)nn(-c3ccccc3)c2O1` (stereo unspecified), the T/C [1] was 94 % of control, the T/C [2] was 100 % of control and the T/C [3] was 98 % of control.
`CC1=CC(Cc2ccccc2)N(C)C(C#N)C1` (stereo unspecified) was tested, and the T/C (dose: 12.5 mg/kg/injection, schedule: Q01DX005 (ip), vehicle: saline with Tween-80) was 101 % of control, the T/C (dose: 25.0 mg/kg/injection, schedule: Q01DX005 (ip), vehicle: saline with Tween-80) was 105 % of control and the T/C [5] was 109 % of control and 116 % of control.
`Fc1ccc(CSC(=S)Nc2cccc(F)c2)cc1` was tested, and the T/C (dose: 50.0 mg/kg/injection, schedule: Q01DX009 (ip), vehicle: suspension in saline) was 90 % of control, the T/C (dose: 100.0 mg/kg/injection, schedule: Q01DX009 (ip), vehicle: suspension in saline) was 103 % of control and the T/C (dose: 200.0 mg/kg/injection, schedule: Q01DX009 (ip), vehicle: suspension in saline) was 107 % of control.
In the case of `C[N+](C)(C)[C@H]1CCCC[C@@H]1O`, the T/C (dose: 50.0 mg/kg/injection, schedule: Q01DX005 (ip), vehicle: distilled water + alcohol) is reported as 104 % of control, the T/C (dose: 100.0 mg/kg/injection, schedule: Q01DX005 (ip), vehicle: distilled water + alcohol) is reported as 99 % of control and the T/C (dose: 200.0 mg/kg/injection, schedule: Q01DX005 (ip), vehicle: distilled water + alcohol) is reported as 105 % of control.
In the case of `O=c1c(-c2ccccc2)cc2c(-c3ccccc3)oc(-c3ccccc3)c2cc1-c1ccccc1`, the T/C (dose: 50.0 mg/kg/injection, schedule: Q04DX002 (ip), vehicle: saline with Tween-80) is reported as 90 % of control, the T/C (dose: 100.0 mg/kg/injection, schedule: Q04DX002 (ip), vehicle: saline with Tween-80) is reported as 94 % of control and the T/C (dose: 200.0 mg/kg/injection, schedule: Q04DX002 (ip), vehicle: saline with Tween-80) is reported as 92 % of control.
In the case of `CC(=O)OC1C=C2C(=O)OCC2(O)C2(C)CCCC(C)(C)C12` (stereo unspecified), the T/C (dose: 3.12 mg/kg/injection, schedule: Q01DX009 (ip), vehicle: other) is reported as 102 % of control, the T/C (dose: 6.25 mg/kg/injection, schedule: Q01DX009 (ip), vehicle: other) is reported as 100 % of control and the T/C [4] is reported as 102 % of control.
For `COC(=O)/C=C1\C(=O)OC2(C)CCCCC12` (stereo unspecified), the T/C [1] was 95 % of control, the T/C [2] was 97 % of control and the T/C [3] was 100 % of control.
With `Clc1ccc(N=Cc2ccc(C=Nc3ccc(Cl)cc3Cl)cc2)c(Cl)c1` the T/C (dose: 12.5 mg/kg/injection, schedule: Q01DX009 (ip), vehicle: saline) was 94 % of control, the T/C (dose: 25.0 mg/kg/injection, schedule: Q01DX009 (ip), vehicle: saline) was 94 % of control and the T/C [8] was 100 % of control and 105 % of control. For the same molecule, the T/C [9] was 88 % of control and the T/C [10] was 92 % of control.
For `C=C(C)C(C)CC(NC(C)=O)C(=O)OC` (stereo unspecified), the T/C (dose: 62.5 mg/kg/injection, schedule: Q04DX002 (ip), vehicle: Klucel (hydroxypropylcellulose) (HPC)) was 96 % of control, the T/C (dose: 125.0 mg/kg/injection, schedule: Q04DX002 (ip), vehicle: Klucel (hydroxypropylcellulose) (HPC)) was 99 % of control and the T/C (dose: 250.0 mg/kg/injection, schedule: Q04DX002 (ip), vehicle: Klucel (hydroxypropylcellulose) (HPC)) was 93 % of control.
In the case of `O=C(O)c1cc(O)c(O)c(OC(=O)c2cc(O)c(O)c(O)c2CNc2ccc3cc(S(=O)(=O)O)cc(S(=O)(=O)O)c3c2)c1`, the T/C [5] is reported as 110 % of control, the T/C [6] is reported as 115 % of control and the T/C [7] is reported as 112 % of control.
For `Cc1ccc(/C=N/N=c2/sc3ccccc3n2CC(=O)O)cc1`, the T/C [14] was 98 % of control, the T/C [15] was 92 % of control and the T/C [16] was 89 % of control.
With `CCOC(=O)/C=C/C(=O)N1CCN(C(=O)/C=C/C(=O)OCC)C(C)C1` (stereo unspecified) the T/C (dose: 50.0 mg/kg/injection, schedule: Q01DX005 (ip), vehicle: Klucel (hydroxypropylcellulose) (HPC)) was 113 % of control, the T/C (dose: 90.0 mg/kg/injection, schedule: Q01DX005 (ip), vehicle: Klucel (hydroxypropylcellulose) (HPC)) was 108 % of control and the T/C (dose: 100.0 mg/kg/injection, schedule: Q01DX005 (ip), vehicle: Klucel (hydroxypropylcellulose) (HPC)) was 116 % of control. For the same molecule, the T/C (dose: 133.0 mg/kg/injection, schedule: Q01DX005 (ip), vehicle: Klucel (hydroxypropylcellulose) (HPC)) was 112 % of control.
With `CN(C)CCC(=O)c1ccccc1` the T/C [8] was 104 % of control and the T/C [9] was 110 % of control.
